Measurements as given in article PMC10281575, “PfCRT mutations conferring piperaquine resistance in falciparum malaria shape the kinetics of quinoline drug binding and transport” (PLOS Pathogens, 2023).
Values joined by “and” are separate entries in the source; they are usually repeats but may differ in a detail not shown here. Equal values may be shown once.

Molecular target: T1, PfCRT^Dd2 (Plasmodium falciparum, UniProt Q8IBZ9, A220S/I356T/K76T/M74I/N326S/N75E/Q271E/R371I)
T1 sequence (Q8IBZ9 1-424 M74I/N75E/K76T/A220S/Q271E/N326S/I356T/R371I): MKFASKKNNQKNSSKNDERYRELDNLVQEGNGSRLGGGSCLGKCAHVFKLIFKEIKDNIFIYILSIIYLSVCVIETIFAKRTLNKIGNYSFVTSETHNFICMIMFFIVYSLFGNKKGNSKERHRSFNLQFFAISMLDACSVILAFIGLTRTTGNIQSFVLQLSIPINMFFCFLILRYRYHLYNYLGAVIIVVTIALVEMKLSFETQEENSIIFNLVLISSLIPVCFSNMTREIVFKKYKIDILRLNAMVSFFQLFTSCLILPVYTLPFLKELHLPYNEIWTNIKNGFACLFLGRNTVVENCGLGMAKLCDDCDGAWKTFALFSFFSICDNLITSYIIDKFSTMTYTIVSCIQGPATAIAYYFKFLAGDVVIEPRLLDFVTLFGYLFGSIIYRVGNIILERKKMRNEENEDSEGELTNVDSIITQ
Assay: Competition kinetics of drug transport (radiolabeled substrate plus cold inhibitor), PfCRT^Dd2-expressing oocytes
Format: cell-based
Set-up: expressed in transfected cells; host or cells: Xenopus laevis oocytes injected with in vitro transcribed RNA (pSP64T)
Conditions: single replicates
Method: The experimental procedure and the data analysis were as described above.
The difference between the two models lies in the value of α, a parameter describing how much the affinity for the substrate changes when the inhibitor is already bound, and vice versa. […] The resulting Vmax,app values and the Vmax,app/KM,app ratios were plotted as a function of the inhibitor concentration (Fig 5A).
Drug transport assays were performed as previously described. Briefly, measurements of radiolabeled drug uptake were made over 1 h, unless otherwise specified. […] Where specified, one or more unlabeled drugs were also present at the indicated concentrations. […] The uptake assays were terminated by removing the oocytes from the reaction medium and washing them three times with 2 mL of ice-cold ND96 buffer. Each oocyte was transferred to a separate scintillation vial and lysed by the addition of 200 μL of a 5% SDS solution. The radioactivity in the sample was measured using a liquid scintillation analyser Tri-Carb 4910 TR (PerkinElmer). Water-injected oocytes were analyzed in parallel as a negative control. The buffer from each condition was measured in duplicate in parallel to each experiment to transform counts per minute into pmol of drug. Drug uptake attributable to PfCRT was determined by subtracting the background uptake from water-injected oocytes from that of PfCRT-expressing oocytes. In all cases, at least three independent experiments were performed on oocytes from different frogs, and for each condition in an experiment, measurements were made from 10 oocytes per treatment.
The following equations were adopted from Segel (1993), and the reader is referred to that text for the assumptions made in the author’s approach in the derivation of each equation [31]. The concentration of substrate is denoted as [S1] and the concentration of the inhibiting substrate is denoted as [S2]. KS1 and KS2 are the dissociation constants for the respective substrate-protein complexes.
Analyses of the kinetic data were performed using SigmaPlot version 13.0 and Python. The drug competition models were globally fit to the kinetic data using the least-squares method and ranked according to their corrected Akaike information criterion difference (ΔAICC) and their Akaike weight, using Python. The two top-ranked models were compared using an F-test.
This factor reflects how much the affinity of the transporter for one drug changes when the other drug is already bound in the protein cavity. In the former model, α > 0 and α ≠ 1. In the latter model, it could be thought of as if α = 1. Because of this, discriminating between the two models also means determining the value of α. In Mixed-type (Partial) inhibition, the apparent maximal velocity (Vmax,app) is given by Eq 22, Vmax,app=Vmax(1+β[S2]/αKS2)/(1+[S2]/αKS2) (Eq 22)
Vmax,app is the maximal rate of substrate transport at a certain inhibitor concentration. The half-maximal inhibitory concentration is given by the term in the denominator different from [S2], which in this case is αKS2. This means that by plotting Vmax,app as a function of [S2], the value of αKS2 can be derived after fitting the curve to Eq 23.
The half-maximal inhibitory concentration derived from this hyperbolic equation is equal to KS2. By plotting Vmax,app/KM,app as a function of [S2], one can derive KS2 after fitting the curve to Eq 25. The value of α can then be calculated dividing αKS2 by KS2.

Compound: Clc1ccc2c(N3CCN(CCCN4CCN(c5ccnc6cc(Cl)ccc56)CC4)CC3)ccnc2c1 [PPQ, piperaquine]
- PfCRTDd2-mediated PPQ transport 10 µM PPQ (0 µM CQ): 7.56 pmol oocyte-1 h-1 and 10.37 pmol oocyte-1 h-1 and 9.52 pmol oocyte-1 h-1
- PfCRTDd2-mediated PPQ transport 10 µM PPQ (25 µM CQ): 5.90 pmol oocyte-1 h-1 and 7.56 pmol oocyte-1 h-1 and 12.12 pmol oocyte-1 h-1
- PfCRTDd2-mediated PPQ transport 10 µM PPQ (50 µM CQ): 9.48 pmol oocyte-1 h-1 and 7.04 pmol oocyte-1 h-1 and 8.33 pmol oocyte-1 h-1
- PfCRTDd2-mediated PPQ transport 10 µM PPQ (125 µM CQ): 5.75 pmol oocyte-1 h-1 and 8.54 pmol oocyte-1 h-1 and 9.92 pmol oocyte-1 h-1
- PfCRTDd2-mediated PPQ transport 10 µM PPQ (200 µM CQ): 6.96 pmol oocyte-1 h-1 and 8.23 pmol oocyte-1 h-1 and 6.73 pmol oocyte-1 h-1
- PfCRTDd2-mediated PPQ transport 10 µM PPQ (400 µM CQ): 6.34 pmol oocyte-1 h-1 and 7.80 pmol oocyte-1 h-1 and 6.93 pmol oocyte-1 h-1
- PfCRTDd2-mediated PPQ transport 50 µM PPQ (0 µM CQ): 28.14 pmol oocyte-1 h-1 and 21.87 pmol oocyte-1 h-1 and 89.78 pmol oocyte-1 h-1 and 46.28 pmol oocyte-1 h-1 and 30.01 pmol oocyte-1 h-1 and 33.33 pmol oocyte-1 h-1
- PfCRTDd2-mediated PPQ transport 50 µM PPQ (25 µM CQ): 38.92 pmol oocyte-1 h-1 and 37.28 pmol oocyte-1 h-1 and 39.83 pmol oocyte-1 h-1
- PfCRTDd2-mediated PPQ transport 50 µM PPQ (50 µM CQ): 39.65 pmol oocyte-1 h-1 and 31.99 pmol oocyte-1 h-1 and 26.06 pmol oocyte-1 h-1
- PfCRTDd2-mediated PPQ transport 50 µM PPQ (125 µM CQ): 26.33 pmol oocyte-1 h-1 and 27.41 pmol oocyte-1 h-1 and 34.41 pmol oocyte-1 h-1
- PfCRTDd2-mediated PPQ transport 50 µM PPQ (200 µM CQ): 26.27 pmol oocyte-1 h-1 and 27.81 pmol oocyte-1 h-1 and 32.81 pmol oocyte-1 h-1
- PfCRTDd2-mediated PPQ transport 50 µM PPQ (400 µM CQ): 19.16 pmol oocyte-1 h-1 and 25.87 pmol oocyte-1 h-1 and 24.41 pmol oocyte-1 h-1
- PfCRTDd2-mediated PPQ transport 100 µM PPQ (0 µM CQ): 59.97 pmol oocyte-1 h-1 and 33.72 pmol oocyte-1 h-1 and 64.52 pmol oocyte-1 h-1
- PfCRTDd2-mediated PPQ transport 100 µM PPQ (25 µM CQ): 49.79 pmol oocyte-1 h-1 and 57.28 pmol oocyte-1 h-1 and 48.06 pmol oocyte-1 h-1
- PfCRTDd2-mediated PPQ transport 100 µM PPQ (50 µM CQ): 52.12 pmol oocyte-1 h-1 and 55.31 pmol oocyte-1 h-1 and 42.70 pmol oocyte-1 h-1
- PfCRTDd2-mediated PPQ transport 100 µM PPQ (125 µM CQ): 58.54 pmol oocyte-1 h-1 and 43.73 pmol oocyte-1 h-1 and 42.26 pmol oocyte-1 h-1
- PfCRTDd2-mediated PPQ transport 100 µM PPQ (200 µM CQ): 53.47 pmol oocyte-1 h-1 and 42.58 pmol oocyte-1 h-1 and 43.06 pmol oocyte-1 h-1
- PfCRTDd2-mediated PPQ transport 100 µM PPQ (400 µM CQ): 44.21 pmol oocyte-1 h-1 and 36.58 pmol oocyte-1 h-1 and 41.48 pmol oocyte-1 h-1
- PfCRTDd2-mediated PPQ transport 200 µM PPQ (0 µM CQ): 87.13 pmol oocyte-1 h-1 and 109.05 pmol oocyte-1 h-1 and 57.84 pmol oocyte-1 h-1
- PfCRTDd2-mediated PPQ transport 200 µM PPQ (25 µM CQ): 75.61 pmol oocyte-1 h-1 and 76.21 pmol oocyte-1 h-1 and 79.18 pmol oocyte-1 h-1
- PfCRTDd2-mediated PPQ transport 200 µM PPQ (50 µM CQ): 78.47 pmol oocyte-1 h-1 and 73.08 pmol oocyte-1 h-1 and 76.77 pmol oocyte-1 h-1
- PfCRTDd2-mediated PPQ transport 200 µM PPQ (125 µM CQ): 74.89 pmol oocyte-1 h-1 and 84.24 pmol oocyte-1 h-1 and 63.70 pmol oocyte-1 h-1
- PfCRTDd2-mediated PPQ transport 200 µM PPQ (200 µM CQ): 63.70 pmol oocyte-1 h-1 and 74.56 pmol oocyte-1 h-1 and 71.51 pmol oocyte-1 h-1
- PfCRTDd2-mediated PPQ transport 200 µM PPQ (400 µM CQ): 58.65 pmol oocyte-1 h-1 and 62.98 pmol oocyte-1 h-1 and 61.98 pmol oocyte-1 h-1
- PfCRTDd2-mediated PPQ transport 300 µM PPQ (0 µM CQ): 90.42 pmol oocyte-1 h-1 and 110.91 pmol oocyte-1 h-1 and 77.44 pmol oocyte-1 h-1
- PfCRTDd2-mediated PPQ transport 300 µM PPQ (25 µM CQ): 75.46 pmol oocyte-1 h-1 and 93.24 pmol oocyte-1 h-1 and 86.36 pmol oocyte-1 h-1
- PfCRTDd2-mediated PPQ transport 300 µM PPQ (50 µM CQ): 67.98 pmol oocyte-1 h-1 and 93.33 pmol oocyte-1 h-1 and 91.69 pmol oocyte-1 h-1
- PfCRTDd2-mediated PPQ transport 300 µM PPQ (125 µM CQ): 84.14 pmol oocyte-1 h-1 and 87.90 pmol oocyte-1 h-1 and 73.92 pmol oocyte-1 h-1
- PfCRTDd2-mediated PPQ transport 300 µM PPQ (200 µM CQ): 93.36 pmol oocyte-1 h-1 and 73.07 pmol oocyte-1 h-1 and 56.74 pmol oocyte-1 h-1 and 73.66 pmol oocyte-1 h-1
- PfCRTDd2-mediated PPQ transport 300 µM PPQ (400 µM CQ): 91.78 pmol oocyte-1 h-1 and 67.51 pmol oocyte-1 h-1 and 51.42 pmol oocyte-1 h-1
- PfCRTDd2-mediated PPQ transport 400 µM PPQ (0 µM CQ): 113.37 pmol oocyte-1 h-1 and 109.88 pmol oocyte-1 h-1 and 74.49 pmol oocyte-1 h-1
- PfCRTDd2-mediated PPQ transport 400 µM PPQ (25 µM CQ): 93.45 pmol oocyte-1 h-1 and 86.08 pmol oocyte-1 h-1 and 106.77 pmol oocyte-1 h-1
- PfCRTDd2-mediated PPQ transport 400 µM PPQ (50 µM CQ): 86.04 pmol oocyte-1 h-1 and 73.87 pmol oocyte-1 h-1 and 103.05 pmol oocyte-1 h-1
- PfCRTDd2-mediated PPQ transport 400 µM PPQ (125 µM CQ): 77.98 pmol oocyte-1 h-1 and 81.70 pmol oocyte-1 h-1 and 88.40 pmol oocyte-1 h-1
- PfCRTDd2-mediated PPQ transport 400 µM PPQ (200 µM CQ): 78.64 pmol oocyte-1 h-1 and 88.68 pmol oocyte-1 h-1 and 77.87 pmol oocyte-1 h-1
- PfCRTDd2-mediated PPQ transport 400 µM PPQ (400 µM CQ): 83.22 pmol oocyte-1 h-1 and 67.13 pmol oocyte-1 h-1 and 69.51 pmol oocyte-1 h-1
- PfCRTDd2-mediated PPQ transport 500 µM PPQ (0 µM CQ): 118.94 pmol oocyte-1 h-1 and 82.44 pmol oocyte-1 h-1 and 112.35 pmol oocyte-1 h-1
- PfCRTDd2-mediated PPQ transport 500 µM PPQ (25 µM CQ): 95.67 pmol oocyte-1 h-1 and 107.56 pmol oocyte-1 h-1 and 100.57 pmol oocyte-1 h-1
